We go through 4 molecules from patent US20180126014A1, “COMPOSITIONS FOR ENHANCING DELIVERY OF AGENTS ACROSS THE BLOOD BRAIN BARRIER AND METHODS OF USE THEREOF” (Yale University, priority 2015, published 2018).

Series [1] has as its system MDA-MB-231Br brain metastases. The series is described as follows: Paclitaxel-loaded ABTT NPs in MDA-MB-231Br derived brain metastasis model. Format: in vivo, mice. Particulars: three times a week for three weeks. Here is the method: Nanoparticles were prepared similarly to those described above for Examples 1 and 6, but including the CTX targeting moiety as described in Example 6. […] Briefly, for synthesis of paclitaxel-loaded NPs, 100 mg mIII-62% in 2 mL DCM containing 2.5 mg LEXISCAN® and 20 mg paclitaxel was added dropwise to 4 mL 2.5% PVA under vortex and sonicated to form a oil/water emulsion. The emulsion was poured into a beaker containing 0.3% PVA and stirred for 3 h to evaporate DCM. NPs were collected by centrifugation at 20000 rpm for 30 min. The precipitate was suspended in PBS and reacted with thiolated CTX […] at room temperature. Nanoparticles were collected, suspended in H2O and lyophilized for storage and characterization.
In both studies, mice were treated with nanoparticles for three times a week for three weeks at a dose of 2 mg/mouse. It is believed that enhanced efficacy can be achieved with a higher dose treatment (maximum tolerated dose >15 mg per treatment) or with extended treatment time.

Series [2] has as its system intracranial GL261 tumors. Particulars: NPs co-loaded with IR780 and BBB modulator, three consecutive days, imaged 24 h after last injection. Here is the method:
For the intracranial GL261 tumor implantation, 5-6 week old female C57BL6 mice were anesthetized via intraperitoneal injection of ketamine hydrochloride (75 mg/kg, Abbot Laboratories) and xylazine (7.5 mg/kg, Phoenix Pharmaceutical) in sterile saline. Twenty thousand GL261 cells in 2 μL of PBS were injected into the right striatum (1.8 mm lateral to the bregma and 3 mm of depth) using a stereotactic fixation device with mouse adaptor. For the subcutaneous GL261 xenograft model, 1×10^6 GL261 cells in 100 μL of PBS were inoculated subcutaneously into the right flank region of female C57BL6 mice. For the intracranial U87-MG glioma model, 1×10^6 U87-MG cells in 2 μL of PBS was injected into the right striatum of BALB/c nude mice using the same procedures.
(§1) Then the hair on the head was shaved and mice were anesthetized and imaged using the IVIS fluorescence imaging system on day 20. Finally, mice were sacrificed and organs resected for further imaging.
At 24 h after the last injection, the hair on the head was shaved and mice were anesthetized and imaged using an IVIS imaging system (Xenogen). Finally, mice were sacrificed and organs resected for further imaging. The fluorescence signal intensity of excised organs was quantified using Living Image 3.0.
as §1

A further series concerns the target T1, A1 adenosine receptor (Homo sapiens, UniProt P30542).
T1 sequence (P30542 1-326): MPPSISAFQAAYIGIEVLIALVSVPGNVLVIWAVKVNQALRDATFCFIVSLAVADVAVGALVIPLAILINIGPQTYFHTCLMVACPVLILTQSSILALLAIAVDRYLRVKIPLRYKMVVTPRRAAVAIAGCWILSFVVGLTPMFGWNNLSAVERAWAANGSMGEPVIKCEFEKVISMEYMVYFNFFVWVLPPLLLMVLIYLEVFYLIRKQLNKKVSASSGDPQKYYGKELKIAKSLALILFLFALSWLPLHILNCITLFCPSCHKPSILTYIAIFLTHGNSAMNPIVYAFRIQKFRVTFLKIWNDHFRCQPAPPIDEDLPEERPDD
Particulars: cited from earlier work.

The next series addresses T2, A2B adenosine receptor (Homo sapiens, UniProt P29275).
T2 sequence (P29275 1-332): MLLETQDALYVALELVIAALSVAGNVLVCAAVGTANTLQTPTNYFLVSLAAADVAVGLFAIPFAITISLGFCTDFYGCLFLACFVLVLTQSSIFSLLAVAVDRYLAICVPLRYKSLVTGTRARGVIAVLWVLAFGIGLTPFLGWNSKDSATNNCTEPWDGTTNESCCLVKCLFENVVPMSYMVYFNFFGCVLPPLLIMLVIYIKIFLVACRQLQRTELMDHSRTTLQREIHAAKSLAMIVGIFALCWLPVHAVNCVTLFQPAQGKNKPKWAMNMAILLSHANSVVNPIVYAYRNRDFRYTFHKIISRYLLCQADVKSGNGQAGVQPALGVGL
Particulars: cited from earlier work.

Another series concerns the target T3, A3 adenosine receptor (Homo sapiens, UniProt P0DMS8).
T3 sequence (P0DMS8 1-318): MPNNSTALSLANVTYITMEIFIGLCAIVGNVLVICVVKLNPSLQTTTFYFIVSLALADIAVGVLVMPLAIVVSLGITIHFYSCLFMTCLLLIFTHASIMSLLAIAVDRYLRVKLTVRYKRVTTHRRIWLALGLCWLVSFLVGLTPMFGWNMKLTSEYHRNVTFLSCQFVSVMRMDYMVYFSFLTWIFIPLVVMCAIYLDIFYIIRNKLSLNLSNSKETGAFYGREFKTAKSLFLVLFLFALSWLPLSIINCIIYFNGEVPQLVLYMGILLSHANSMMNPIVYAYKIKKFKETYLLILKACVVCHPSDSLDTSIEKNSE
Particulars: cited from earlier work.

The molecule `CC(=O)O[C@H]1C(=O)[C@@]2(C)[C@H]([C@H](OC(=O)c3ccccc3)[C@]3(O)C[C@H](OC(=O)[C@H](O)[C@@H](NC(=O)c4ccccc4)c4ccccc4)C(C)=C1C3(C)C)[C@]1(OC(C)=O)CO[C@@H]1C[C@@H]2O` [free paclitaxel, paclitaxel] gave a median survival time in series [1] of 45 days.

Turning to `CCNC(=O)[C@H]1O[C@@H](n2cnc3c(N)ncnc32)[C@H](O)[C@@H]1O` [NECA, 1-(6-Amino-9H-purin-9-yl)-1-deoxy-N-ethyl-β-D-ribofuranuronamide], the “delivery of CTX-mHph2-III-62% NPs to the brain with encapsulated BBB modulator” value (from here on “delivery of CTX-mHph2-III-62% NPs”) in series [2] is listed as “significantly enhanced delivery”.

Regarding `Nc1cc(N2CCCCC2)nc(N)[n+]1[O-]` [minoxidil], the “delivery of CTX-mHph2-III-62% NPs” value in series [2] is “significantly enhanced delivery”.

For `CNC(=O)c1cnn(-c2nc(N)c3ncn([C@@H]4O[C@H](CO)[C@@H](O)[C@H]4O)c3n2)c1` [Regadenoson, 2-{4-[(methylamino)carbonyl]-1H-pyrazol-1-yl}adenosine], in series [2], the “delivery of CTX-mHph2-III-62% NPs” value was “significantly enhanced delivery”. For the same molecule, at A1 adenosine receptor, the Ki was above 16.5 µM. Also, the “lower affinity for the A1 adenosine receptor than for A2A” value on A1 adenosine receptor was “at least 10 fold”. The affinity entry at A2B adenosine receptor is recorded as “weak, if any”; on A3 adenosine receptor it was “weak, if any”.

The Ki is a measure of affinity in units of concentration, obtained from inhibition or displacement.
